Experimental data from patent US20260151518A1, “LEUKOCYTE-SPECIFIC CELL PENETRATING MOLECULES” (Amytrx Therapeutics, Inc., priority 2021, published 2026).

How the values were obtained:
[1] = Pharmacokinetics of [3H]-AMTX-100 after multiple routes of administration; type: in vivo, rat; conditions: rat
Experimental: AMTX-100 was radiolabeled with 3H at lysine residues and injected into Sprague-Dawley rats in a single dose by seven different routes (intravenous, subcutaneous, topical [skin], intratracheal, intraduodenal, esophageal, and oral). The rats were evaluated at various time points, up to 120 hours, by: a) blood samples were taken for pharmacokinetics (PK) by cardiac puncture; b) rats were frozen and sectioned for QWBA and/or micro-auto-radiography and histology; and c) frozen sections were made and freeze dried and exposed to phosphor-storage imaging plates and tissue radioactivity in images was quantified as tissue: blood ratios.
For all PK studies, the following definitions were used: WB=whole blood; Plasma=whole blood depleted of red blood cells; WBCD=whole blood depleted of white blood cells in which the whole blood is passed over a Pall Acrodisc filter (about 60% efficient); WBCs=the cells which bind to, and are washed off, the Pall Acrodisc filter.

[2] = Tissue distribution of radioactivity by quantitative whole body autoradiography (QWBA) after single intravenous [3H]-AMTX-100; type: in vivo, rat
Experimental: The formulation was administered directly into a tail vein. The dose volume (2.5 mL/kg) was used to achieve a dose level of 5 mg/kg and radioactive dose levels of 100 μCi/kg (Phase 1) and 500 μCi/kg (Phase 2). The dose formulation was stirred continuously throughout the dosing procedure.
Quantitative Whole Body Autoradiography (QWBA). The frozen carcasses were subjected to QWBA. Sections were presented at up to five different levels of the rat body to include between 30 and 40 tissues (subject to presence of sufficient radioactivity).
The freeze-dried whole body autoradiography sections were exposed to phosphor-storage imaging plates and incubated at ambient temperature in the dark for seven days. Calibrated autoradiographic blood standards containing known amounts of radioactivity (nCi/g) were included in each exposure.
Distribution of radioactivity in tissues and [^3H]-blood standards (prepared and validated at Pharmaron UK Ltd.) was determined and quantified using a Fuji FLA-5100 fluorescent image analyzing system and associated Tina (version 2.09) and SeeScan (version 2.0) software. For each exposure, a standard curve was produced in SeeScan using the data from the autoradiographic blood standards from which tissue concentrations of radioactivity (μg equivalents/g) were determined.
A representative background radioactivity measurement for each exposure plate used was also taken. The number of measurements for each particular tissue was determined by the number of levels it appeared in. Multiple measurements were therefore performed for larger tissues that appeared in more than one level (e.g. liver), with only one measurement obtained for small tissues (e.g. thyroid gland). The limit of accurate quantification was considered to be the lowest [^3H]-blood standard visible.
Three of the carcasses obtained from the eight male Sprague Dawley rats subjected to whole blood collection and analysis after each receiving a single intravenous administration of [^3H]-AMTX-100, were selected for QWBA analysis at each of the following time points: 10 minutes and 2 and 12 hours post-dose.
Each carcass was snap frozen by immersion in a hexane/dry ice mixture immediately after collection and was then stored at approximately −20° C., pending analysis by QWBA.

[3] = single intravenous, 5 mg/kg, rat, 10 min
[4] = single intravenous, 5 mg/kg, rat, 2 hr

CSCC[C@@H]1NC(=O)[C@H](CC(C)C)NC(=O)[C@H](CCCCN)NC(=O)[C@H](CCC(N)=O)CC(=O)[C@H](CCCNC(=N)N)NC(=O)[C@H](CCCCN)NC(=O)[C@H](CCCNC(=N)N)NC(=O)[C@H](CCC(N)=O)NC(=O)[C@H](C(C)C)NC(=O)[C@@H](NC(=O)[C@@H]2CCCN2C(=O)[C@H](C)NC(=O)[C@H](CC(C)C)NC(=O)[C@H](CC(C)C)NC(=O)[C@H](C)NC(=O)[C@H](CC(C)C)NC(=O)[C@H](CC(C)C)NC(=O)[C@@H](NC(=O)[C@H](C)NC(=O)[C@@H]2CCCN2C(=O)[C@H](CC(C)C)NC(=O)[C@H](CC(C)C)NC(=O)[C@H](C)NC(=O)[C@@H](NC(=O)[C@H](C)NC(=O)[C@H](C)N)C(C)C)C(C)C)CSSC[C@@H](C(=O)O)NC(=O)[C@@H]2CCCN2C1=O [[^3H]-AMTX-100]
Specific target cells in blood [1]: WBCs and not RBCs are the specific target
Residence time in plasma ([1]; Sub-Q, single dose): > 672 h
Presence in tissue ([1]; after a single dose): found in tissue in which WBCs congregate, but not cardiac or skeletal muscle tissue
Entry into the bloodstream ([1]; all routes of administration): by all routes of administration makes its way into the bloodstream
Resistance to degradation ([1]; esophageal administration, L-amino acid version): resistant to degradation
Radioactivity localization in heart and other muscle cells ([2]; rats): lack of radioactivity localization in heart and other muscle cells
Organ localization of radioactivity ([2]; rats, spleen, lung, liver, lymph nodes, kidney, adrenal gland, bone marrow, pancreas, small intestine, etc.): localized to organs where immune cells are known to reside and traffic through
Concentration of radioactivity in Adrenal gland [2, 3]: 9.93 μg equivalents/g
Concentration of radioactivity in Blood: residual cardiac [2, 3]: 2.89 μg equivalents/g
Concentration of radioactivity in Bone [2, 3]: BLQ (Below lower limit of accurate quantification (<0.36 μg equivalents/g))
Concentration of radioactivity in Bone marror [2, 3]: 4.44 μg equivalents/g
Concentration of radioactivity in Brain [2, 3]: BLQ (Below lower limit of accurate quantification (<0.36 μg equivalents/g))
Concentration of radioactivity in Caecum contents [2, 3]: BLQ (Below lower limit of accurate quantification (<0.36 μg equivalents/g))
Concentration of radioactivity in Caecum mucosa [2, 3]: 0.82 μg equivalents/g
Concentration of radioactivity in Choroid plexus [2, 3]: 0.71 μg equivalents/g
Concentration of radioactivity in Epididymis [2, 3]: 0.44 μg equivalents/g
Concentration of radioactivity in Ex-orbital lachrymal gland [2, 3]: 0.71 μg equivalents/g
Concentration of radioactivity in Eye: lens [2, 3]: BLQ (Below lower limit of accurate quantification (<0.36 μg equivalents/g))
Concentration of radioactivity in Eye: whole [2, 3]: BLQ (Below lower limit of accurate quantification (<0.36 μg equivalents/g))
Concentration of radioactivity in Fat: brown [2, 3]: 0.59 μg equivalents/g
Concentration of radioactivity in Fat: white [2, 3]: 0.38 μg equivalents/g
Concentration of radioactivity in Forestomach mucosa [2, 3]: 0.52 μg equivalents/g
Concentration of radioactivity in Glandular stomach mucosa [2, 3]: 1.13 μg equivalents/g
Concentration of radioactivity in Harderian gland [2, 3]: 0.46 μg equivalents/g
Concentration of radioactivity in Kidney: cortex [2, 3]: 16.30 μg equivalents/g
Concentration of radioactivity in Kidney: medulla [2, 3]: 10.10 μg equivalents/g
Concentration of radioactivity in Kidney: whole [2, 3]: 13.30 μg equivalents/g
Concentration of radioactivity in Large intestine contents [2, 3]: BLQ (Below lower limit of accurate quantification (<0.36 μg equivalents/g))
Concentration of radioactivity in Large intestine mucosa [2, 3]: 0.80 μg equivalents/g
Concentration of radioactivity in Liver [2, 3]: 58.60 μg equivalents/g
Concentration of radioactivity in Lung [2, 3]: 96.70 μg equivalents/g
Concentration of radioactivity in Lymph node [2, 3]: 1.13 μg equivalents/g
Concentration of radioactivity in Muscle [2, 3]: 0.52 μg equivalents/g
Concentration of radioactivity in Myocardium [2, 3]: 1.25 μg equivalents/g
Concentration of radioactivity in Pancreas [2, 3]: 1.71 μg equivalents/g
Concentration of radioactivity in Pituitary gland [2, 3]: 2.21 μg equivalents/g
Concentration of radioactivity in Prostate gland [2, 3]: 0.41 μg equivalents/g
Concentration of radioactivity in Salivary gland [2, 3]: 1.09 μg equivalents/g
Concentration of radioactivity in Skin [2, 3]: 0.48 μg equivalents/g
Concentration of radioactivity in Small intestine contents [2, 3]: BLQ (Below lower limit of accurate quantification (<0.36 μg equivalents/g))
Concentration of radioactivity in Small intestine mucosa [2, 3]: 0.54 μg equivalents/g
Concentration of radioactivity in Spinal cord [2, 3]: BLQ (Below lower limit of accurate quantification (<0.36 μg equivalents/g))
Concentration of radioactivity in Spleen: red pulp [2, 3]: 15.40 μg equivalents/g
Concentration of radioactivity in Spleen: white pulp [2, 3]: 8.70 μg equivalents/g
Concentration of radioactivity in Spleen: whole [2, 3]: 55.80 μg equivalents/g
Concentration of radioactivity in Stomach contents [2, 3]: BLQ (Below lower limit of accurate quantification (<0.36 μg equivalents/g))
Concentration of radioactivity in Testis [2, 3]: BLQ (Below lower limit of accurate quantification (<0.36 μg equivalents/g))
Concentration of radioactivity in Thymus [2, 3]: 0.45 μg equivalents/g
Concentration of radioactivity in Thyroid gland [2, 3]: 1.66 μg equivalents/g
Concentration of radioactivity in Urinary bladder contents [2, 3]: 67.50 μg equivalents/g
Concentration of radioactivity in Urinary bladder wall [2, 3]: 0.69 μg equivalents/g
Concentration of radioactivity in Adrenal gland [2, 4]: 5.33 μg equivalents/g
Concentration of radioactivity in Blood: residual cardiac [2, 4]: 0.82 μg equivalents/g
Concentration of radioactivity in Bone [2, 4]: BLQ (Below lower limit of accurate quantification (<0.36 μg equivalents/g))
Concentration of radioactivity in Bone marror [2, 4]: 4.40 μg equivalents/g
Concentration of radioactivity in Brain [2, 4]: BLQ (Below lower limit of accurate quantification (<0.36 μg equivalents/g))
Concentration of radioactivity in Caecum contents [2, 4]: BLQ (Below lower limit of accurate quantification (<0.36 μg equivalents/g))
